Measurements taken from patent US11224223B2, “Feeding deterrence of pests such as Hemiptera, Lepidoptera and Coleoptera” (BEDOUKIAN RESEARCH, INC., priority 2012, dated 2022).

Columns and labels:
Format in all cases: in vivo
Aphis gossypii = experiment: Melon aphid repellency on leaf choice assays; settings: 3% compound in a Triton X:Water solution; n=100; control 50/50
From the text: Melon Aphid Repellency on Leaf Choice Assays Aphis gossypii are maintained on squash plants. Individual aphids (n=100) are given the choice between leaves with and without repellent treatments. A separate group of aphids are given a choice between untreated vs. untreated leaves as a control. The number of aphids choosing each leaf is counted both choice tests. The number of aphids choosing each treatment is compared to the control to determine the repellent effect.

saw tooth grain beetles = experiment: Repellency of test compounds on grain beetles, treated corn kernels; settings: 5% in isopropyl alcohol, 3 week period
Description: Ten replicates of 30 kernels of corn are immersed into the test compound and allowed to dry for 24 hours. The kernels are then transferred to a test container, and 10 saw tooth grain beetles are released. Test containers are secured and left for a 3 week period. At the end of this time, the […] grains are examined for feeding damage. […] Ten additional replicates treated with isopropyl alcohol are prepared to serve as controls.

sharpshooters = experiment: Leafhopper repellency on citrus choice assays; settings: 3% compound; citrus seedlings; 100 sharpshooters per cage; control 50/50
From the text: Leafhopper Repellency on Citrus Choice Assays Citrus seedlings are sprayed with either a 3% solution of repellent chemical in a 5%:95% ETOH:Water or only 5%:95% ETOH:Water as a control. Two seedlings are placed in a screen cage, either a treatment vs control tree or a control vs control tree. 100 sharpshooters are released into each cage. The number of sharpshooters choosing each leaf is counted for both choice tests. The number of sharpshooters choosing each treatment is compared to the control to determine if there is a repellent effect.

Popillia japonica = experiment: Japanese beetle feeding damage on basil; settings: 3% compound; basil leaf disks; adult beetle; 24 h
Description: Japanese Beetle Feeding Damage on Basil For choice feeding assays, 3% alcohol solutions of the tested compounds are prepared. Disks (4.0 cm in diameter) are cut from basil leaves and are dipped in the test solutions or alcohol alone as a control. After the complete evaporation of the solvent, the disks are offered to 1 adult beetle. All dishes are placed in an incubator. Four replicates are used for each chemical. After 24 h, the remaining uneaten area of each basil leaf disk is measured using a scanner and software. The selective antifeeding rate (%) formula is [(C−T)/(C+T)]×100, and the non-selective antifeeding rate (%) formula is [(C−T)/C)]×100, where C and T are the areas consumed by the control and treated leaf disks, respectively.

[1] = test system: brown marmorated stink bugs (BMSB); experiment: Repellency as feeding deterrence in brown marmorated stink bugs, treated filter paper with green bean; settings: compound at 3.5% in a 57% Ethanol:43% water solution; control 38%
Description: A test was designed to measure the repellency as feeding deterrence in brown marmorated stink bugs (BMSB). Five replicates of 5 BMSBs were introduced into test arenas, containing one 60 mm×15 mm Petri dish with treated filter papers in which a food source (green bean) was attached, at the start of the test. The small Petri dishes containing the treated filter paper and food source were covered with a fitted Petri dish lid in between observation times, and were removed 5 minutes before each observation time to prevent stink bugs from feeding until sated. The distribution of the BMSBs was observed and documented hourly for 5 hours.

| SMILES | Number of Aphids Choosing each Treatment: Treated (Aphis gossypii) | Number of Aphids Choosing each Treatment: Untreated (Aphis gossypii) | Increased Repellency vs. Control Repellency (saw tooth grain beetles) [%] | Number of Psyllids Choosing each Treatment: Treated (sharpshooters) | Number of Psyllids Choosing each Treatment: Untreated (sharpshooters) | % Repellency (Popillia japonica) [%] | Repellency averaged over 5 hours [1] [%] |
| --- | --- | --- | --- | --- | --- | --- | --- |
| CC/C(C)=C/CC/C(C)=C/CC1CCCC1=O (stereo not shown) [Methyl Apritone] | 30 | 70 | 10 | 30 | 70 | 15 | – |
| CCCCCC1C(=O)CCC1CC(=O)OCCC (stereo not shown) [Propyl Dihydrojasmonate] | 30 | 70 | 10 | 30 | 70 | 15 | 100 |
